PubChem BioAssay (NCI)
Values joined by “and” are separate entries in the source; they are usually repeats but may differ in a detail not shown here. Equal values may be shown once.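 Growth conditions: 96-well plates. Treatment: test compound, 48 hours, 5 concentrations. Analysis: linear interpolation between bracketing concentrations; unreached endpoints set to highest concentration. GI50 is the concentration that inhibits growth by half. TGI denotes the concentration required for complete inhibition of growth.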

How the values were obtained:
Assay in all cases: growth of human tumour cells (NCI), 48 h
786-0 renal = test system: 786-0 renal
DU-145 prostate = test system: DU-145 prostate
HCT-116 colon = test system: HCT-116 colon
HL-60(TB) leukemia = test system: HL-60(TB) leukemia
HT29 colon = test system: HT29 colon
M19-MEL melanoma = test system: M19-MEL melanoma
DMS 273 small cell lung = test system: DMS 273 small cell lung
KM20L2 colon = test system: KM20L2 colon
LXFL 529 NSCLC = test system: LXFL 529 NSCLC

Row | Structure (SMILES) | TGI (786-0 renal) | TGI (DU-145 prostate) | TGI (HCT-116 colon) | TGI (HL-60(TB) leukemia) | TGI (HT29 colon) | other results
1 | C[C@H]1COC2=C1C(=O)C(=O)c1c2ccc2c1CCCC2(C)C | 35.2 µM | 2.08 µM | 46.3 µM | 42.3 µM | 7.39 µM | –
2 | CCC[C@@H]1C(=O)N=C(N)N1C(=O)OCc1ccccc1 | > 100 µM | > 100 µM | > 100 µM | > 100 µM | > 100 µM | –
3 | Oc1cc(Br)cc2cc(Cl)cnc12 | 38.8 µM | > 55.5 µM | > 42 µM | 2.75 µM | > 40.9 µM | –
4 | Cc1ccc([N+](=O)[O-])c2c(NCC(O)CO)ccnc12 (stereo not given) | > 100 µM | > 100 µM | > 100 µM | > 100 µM | > 100 µM | –
5 | COc1ccc(C2=NN=C3C(c4ccccc4)=Nc4ccccc4N3C2)cc1 | > 100 µM | 70.7 µM | 71.2 µM | 38.5 µM | 74.3 µM | –
6 | Cc1c(C(=O)O)n2cnnc2c2ccccc12 | > 100 µM | > 100 µM | > 100 µM | > 100 µM | > 100 µM | –
7 | CCOC(=O)C(NC(=O)OC(C)(C)C)C(=O)OCC | > 100 µM | > 100 µM | > 100 µM | – | > 100 µM | –
8 | OC(CC(O)(C(F)(F)F)C(F)(F)F)c1ccc(C(O)CC(O)(C(F)(F)F)C(F)(F)F)cc1 (stereo not given) | 34.9 µM | 28.3 µM | 24 µM | 37.4 µM | 25.1 µM | –
9 | CN1CCN(C2=CC(=O)c3c(O)ccc(O)c3C2=O)CC1 | 3.91 µM | 3.13 µM | 0.578 µM | 0.785 µM | 0.946 µM | –
10 | Cc1ccc(-n2cc([Si](C)(C)C)nn2)s1 | > 100 µM | > 100 µM | > 100 µM | – | > 100 µM | –
11 | CC(C)(C)OC(=O)NCC(=O)N1CCN(C(=O)CNC(=O)OC(C)(C)C)CC1 | > 100 µM | > 100 µM | > 100 µM | > 100 µM | > 100 µM | –
12 | CCC(NC1=NCCO1)c1cccs1 (stereo not given) | 28.7 µM | 28.5 µM | 27.1 µM | 82.7 µM | 63.9 µM | –
13 | O=C1C(=Cc2ccc(Cl)c(Cl)c2)C([O-])=C([P+](c2ccccc2)(c2ccccc2)c2ccccc2)C([O-])=C1[P+](c1ccccc1)(c1ccccc1)c1ccccc1 | 4.18 µM | 28.1 µM | 3.73 µM | 3.18 µM | 4.05 µM | –
14 | Fc1cc(-c2cc(-c3ccc4c(c3)OCO4)n[nH]2)c(Cl)cc1Cl | 3.59 µM | 13 µM | 4.17 µM | > 100 µM | 15.9 µM | –
15 | [N-]=[N+]=Nc1c([N+](=O)[O-])c(=O)n2c3c(cccc13)CCC2 | 30.9 µM | 38.7 µM | 30.2 µM | 4.56 µM | 36.1 µM | –
16 | NC1CC=C(COC(=O)C(O)(c2ccccc2)C2CC2)CC1 (stereo not given) | > 100 µM | > 100 µM | > 100 µM | – | > 100 µM | –

Row | Structure (SMILES) | TGI (786-0 renal) | TGI (DU-145 prostate) | TGI (HCT-116 colon) | TGI (HL-60(TB) leukemia) | TGI (HT29 colon) | other results
17 | OC1C[C@H](c2ccccc2)C2(C(O)c3ccccc3C2O)[C@@H](c2ccccc2)C1 (stereo not given in full) | > 100 µM | > 100 µM | > 100 µM | > 100 µM | > 100 µM | –
18 | N#CC(C#N)=C1C(=O)NC(N)=C1C#N | > 100 µM | > 100 µM | > 100 µM | > 100 µM | > 100 µM | –
19 | COc1ccc(Nc2nc(N)c(C(=O)c3cccs3)s2)cc1 | > 56.6 µM | 36.3 µM | > 36.5 µM | > 22.8 µM | > 41.4 µM | –
20 | O=C1c2ccccc2C(=O)c2[nH]c(Cc3ccc(F)cc3)nc21 | 43.8 µM | – | 42.3 µM | 55.2 µM | 30.3 µM | TGI (M19-MEL melanoma): 34.2 µM; TGI (DMS 273 small cell lung): 35.5 µM; TGI (KM20L2 colon): 34.4 µM; TGI (LXFL 529 NSCLC): 88.2 µM
21 | CCN1CCC(O)(/C=C/c2ccc(C(C)C)cc2)C(C(=O)/C=C/c2ccc(C(C)C)cc2)C1 (stereo not given) | 3.4 µM | 9.76 µM | 3.53 µM | > 26.8 µM | 6.21 µM | –
22 | O=C(O)Cn1cc([N+](=O)[O-])c(=O)c2ccccc21 | > 100 µM | > 100 µM | > 100 µM | > 100 µM | > 100 µM | –
23 | O=C(/C=C\c1cccc2ccccc12)c1cccc2ccccc12 | 17.4 µM | – | 13.4 µM | 9.29 µM and 25.6 µM | – | TGI (M19-MEL melanoma): 33.6 µM; GI50 (DMS 273 small cell lung): 4.03 µM; TGI (DMS 273 small cell lung): 24.7 µM; GI50 (HCT-116 colon): 3.36 µM; GI50 (HL-60(TB) leukemia): 2900 nM; GI50 (KM20L2 colon): 3.96 µM; TGI (KM20L2 colon): 15 µM; GI50 (LXFL 529 NSCLC): 2900 nM; TGI (LXFL 529 NSCLC): 13.6 µM; GI50 (HT29 colon): 4.47 µM
24 | CCOC(=O)[C@@H]1ON2OC(OC3CCCC3(c3ccccc3)c3ccccc3)C(OC(C)=O)[C@H]3OC(=O)[C@@H]1C32 (stereo not given in full) | > 100 µM | > 100 µM | > 100 µM | > 100 µM | > 100 µM | –
25 | Cc1ccc(N=C2C(=Nc3ccc(C)cc3)N(c3ccc(C)cc3)C(=S)N2C(=O)c2ccccc2)cc1 | > 100 µM | > 100 µM | – | – | > 100 µM | –
26 | CCOC(=O)/C=C(\C(=O)OCC)n1ccc(=O)[nH]c1=O | 18.5 µM | > 76.9 µM | 19.6 µM | 6.2 µM | 31 µM | –
27 | CC(=O)OC1COC(Nc2nc(N)n(C)c(=O)c2N=O)C(OC(C)=O)C1OC(C)=O (stereo not given) | > 10 µM | > 10 µM | > 10 µM | > 10 µM | > 10 µM | –
28 | O=C1CC2CCC(C1)S2=O (stereo not given) | > 100 µM | > 100 µM | > 100 µM | > 100 µM | > 100 µM | –
29 | CC1(C)CCc2c(c(N=Nc3ccc(F)cc3)c3ccccc3c2O)O1 | > 100 µM | 35.8 µM | > 100 µM | 65.1 µM | 44.1 µM | –
30 | CC1=C(C)C(=O)C(C2=CC(=O)C=CC2=O)=C(C2=CC(=O)C=CC2=O)C1=O | > 100 µM | > 100 µM | > 79.2 µM | > 100 µM | > 100 µM | –
31 | Oc1ccc(Cl)cc1C1=NC(/N=C\c2ccccc2)=NC(c2ccccc2)C1 (stereo not given) | > 100 µM | > 100 µM | > 100 µM | – | > 100 µM | –
